The results in this text go back to patent US6075057A, “Inhibition of carbohydrates metabolism by quinone compounds” (priority 1997, dated 2000).

The test system of assay [1] is β-glucosidase (EC 3.2.1.21). Briefly: Initial screening assay for enzyme inhibition, β-glucosidase. The assay is classed as biochemical, almonds. The conditions noted are these: 20 μM inhibitor, 2% MeOH. The procedure: (§1) Optically pure enantiomers of avarol were synthetically prepared. A survey of potential inhibitory activity by avarol against twelve glycosidases was performed according to general procedures^15 (see experimental section). The enzymes tested and their biological sources are listed in Table 1 along with any pertinent references found for a given enzyme. In order to determine a working range for enzyme and substrate concentrations in which the rate of product formation was linear and steady-state kinetics were applicable, initial rate studies with varying substrate concentrations were performed in the absence of inhibitor. The Michaelis constants (Km 's) and Vmax values for these enzymes were determined from these plots using standard graphical analysis procedures as described in ref. 17 and are summarized in Table 2.
(§2) Enzymatic Assays. […] Reactions were monitored at 400 nm (the absorbance of the p-nitrophenol product, ε=3204.5 M^-1 cm^-1) for a given amount of time and the initial rates were calculated and expressed as μmols p-nitrophenol formed per unit enzyme per second. Absportion readings for control reactions were corrected for the small baseline absorbance at time zero. Small discrepancies between time zero absorbance readings in a given inhibition assay and a time zero reading in a control assay were used to correct the overall absorbance change calculated in the inhibition assay. […]

In assay [2] the test system is β-N-acetylglucosaminidase (EC 3.2.1.30). Briefly: Initial screening assay for enzyme inhibition, β-N-acetylglucosaminidase. The conditions noted are these: 2% MeOH. The assay is classed as biochemical, bovine kidney. The procedure: as §1
(§3) Enzymatic Assays. Piperazine-N,N'-bix-(2-ethanesulfonic acid)(PIPES) buffer, enzymes, and substrates were purchased from Sigma and used as received. Buffer solutions and enzymes (desiccated) were stored at 4° C. p-Nitrophenyl glycoside substrates were stored desiccated at -20° C. Enzyme inhibition assays and initial rate studies were carried out with the appropriate p-nitrophenyl glycoside substrates following the general procedure of Kajimoto et al., J. Am. Chem. Soc. 113:6187 (1991) with the exception that amyloglucosidase (EC 3.2,1.3, Asp. niger) was assayed following the method of Saul et al., Arch. Biochem. Biophys. 221:593 (1983). Assays were performed in a Perkin-Elmer Lambda Array 3840 Spectrophotometer using the built-in drive method (resolution=0.25, average=8) in a quartz cuvette (1 cm pathlength). Background absorption spectra were acquired using millipore filtered water as medium. Steady-state kinetics were maintained by adjusting the amount of enzyme used in each assay so that less than 10% of the substrate was converted to product for the duration of the reaction. Reactions were monitored at 400 nm (the absorbance of the p-nitrophenol product, ε=3204.5 M^-1 cm^-1) for a given amount of time and the initial rates were calculated and expressed as μmols p-nitrophenol formed per unit enzyme per second. Absportion readings for control reactions were corrected for the small baseline absorbance at time zero. Small discrepancies between time zero absorbance readings in a given inhibition assay and a time zero reading in a control assay were used to correct the overall absorbance change calculated in the inhibition assay. […]
(§4) Typical assay: A 1.5-mL quartz cuvette was charged with 940 μL of PIPES-NaOAc buffer solution (pH 6.56), 20 μL of inhibitor solution, and 20 μL of enzyme solution. […] The reaction was monitored at 400 nm for 1 min and the absorbance change was used to calculate the initial hydrolysis rate. […]

The target in assay [3] is T1, β-galactosidase (EC 3.2.1.23, grade XI) (Aspergillus oryzae, UniProt Q2UCU3).
T1 construct: purchased Sigma; host or cells: Aspergillus oryzae
T1 sequence (Q2UCU3 19-1005): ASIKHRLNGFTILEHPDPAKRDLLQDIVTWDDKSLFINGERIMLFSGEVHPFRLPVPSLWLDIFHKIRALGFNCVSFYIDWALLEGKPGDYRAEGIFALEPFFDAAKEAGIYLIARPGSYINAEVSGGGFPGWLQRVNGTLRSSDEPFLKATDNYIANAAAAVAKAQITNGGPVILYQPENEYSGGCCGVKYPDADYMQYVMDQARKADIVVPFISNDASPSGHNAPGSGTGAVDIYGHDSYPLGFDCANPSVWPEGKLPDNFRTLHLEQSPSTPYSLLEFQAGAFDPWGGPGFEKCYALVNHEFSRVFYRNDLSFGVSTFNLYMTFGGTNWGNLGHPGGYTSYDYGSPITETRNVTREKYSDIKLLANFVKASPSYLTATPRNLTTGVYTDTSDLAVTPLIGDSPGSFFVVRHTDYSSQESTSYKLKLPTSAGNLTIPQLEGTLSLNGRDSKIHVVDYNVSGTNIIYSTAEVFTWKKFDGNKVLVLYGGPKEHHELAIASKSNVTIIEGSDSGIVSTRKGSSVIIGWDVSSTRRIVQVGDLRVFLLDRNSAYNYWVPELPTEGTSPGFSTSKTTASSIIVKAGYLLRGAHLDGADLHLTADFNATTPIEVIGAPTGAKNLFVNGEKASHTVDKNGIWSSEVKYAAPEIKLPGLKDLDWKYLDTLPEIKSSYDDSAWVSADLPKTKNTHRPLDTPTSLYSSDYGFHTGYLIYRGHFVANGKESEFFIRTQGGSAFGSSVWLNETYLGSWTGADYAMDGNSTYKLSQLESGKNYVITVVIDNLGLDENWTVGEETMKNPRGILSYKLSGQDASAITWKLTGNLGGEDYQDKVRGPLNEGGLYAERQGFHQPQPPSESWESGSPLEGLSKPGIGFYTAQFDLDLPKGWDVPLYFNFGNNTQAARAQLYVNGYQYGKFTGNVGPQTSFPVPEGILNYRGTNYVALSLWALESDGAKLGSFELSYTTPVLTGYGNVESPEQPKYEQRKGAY
Briefly: Initial screening assay for enzyme inhibition, β-galactosidase (Asp. oryzae). The assay is classed as biochemical. The conditions noted are these: 2% MeOH, read-out: % Enzyme activity relative to control. The procedure:
as §1, §3, §4

In assay [4] the target is T2, α-galactosidase (EC 3.2.1.22) (Coffea arabica, UniProt Q42656).
T2 construct: purchased Sigma; host or cells: green coffee beans
T2 sequence (Q42656 16-378): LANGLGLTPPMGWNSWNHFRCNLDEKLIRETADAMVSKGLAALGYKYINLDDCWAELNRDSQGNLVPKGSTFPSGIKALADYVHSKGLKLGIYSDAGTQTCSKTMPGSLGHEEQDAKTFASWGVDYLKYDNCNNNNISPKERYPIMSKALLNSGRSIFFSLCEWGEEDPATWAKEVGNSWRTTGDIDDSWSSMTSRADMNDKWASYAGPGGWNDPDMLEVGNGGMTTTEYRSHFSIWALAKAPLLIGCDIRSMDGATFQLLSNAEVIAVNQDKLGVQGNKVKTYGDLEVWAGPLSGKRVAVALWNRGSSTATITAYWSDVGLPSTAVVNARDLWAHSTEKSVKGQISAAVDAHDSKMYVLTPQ
Briefly: Initial screening assay for enzyme inhibition, α-galactosidase (green coffee beans). The conditions noted are these: α-galactosidase (green coffee beans), 2% MeOH, read-out: % Enzyme activity relative to control. Type of assay: biochemical. The procedure:
as §1, §3, §4

The target of assay [5] is T3, α-mannosidase (EC 3.2.1.24) (Canavalia ensiformis, UniProt C0HJB3).
T3 construct: 66 and 44 kDa subunits cleaved from one precursor
T3 sequence (C0HJB3 1-981): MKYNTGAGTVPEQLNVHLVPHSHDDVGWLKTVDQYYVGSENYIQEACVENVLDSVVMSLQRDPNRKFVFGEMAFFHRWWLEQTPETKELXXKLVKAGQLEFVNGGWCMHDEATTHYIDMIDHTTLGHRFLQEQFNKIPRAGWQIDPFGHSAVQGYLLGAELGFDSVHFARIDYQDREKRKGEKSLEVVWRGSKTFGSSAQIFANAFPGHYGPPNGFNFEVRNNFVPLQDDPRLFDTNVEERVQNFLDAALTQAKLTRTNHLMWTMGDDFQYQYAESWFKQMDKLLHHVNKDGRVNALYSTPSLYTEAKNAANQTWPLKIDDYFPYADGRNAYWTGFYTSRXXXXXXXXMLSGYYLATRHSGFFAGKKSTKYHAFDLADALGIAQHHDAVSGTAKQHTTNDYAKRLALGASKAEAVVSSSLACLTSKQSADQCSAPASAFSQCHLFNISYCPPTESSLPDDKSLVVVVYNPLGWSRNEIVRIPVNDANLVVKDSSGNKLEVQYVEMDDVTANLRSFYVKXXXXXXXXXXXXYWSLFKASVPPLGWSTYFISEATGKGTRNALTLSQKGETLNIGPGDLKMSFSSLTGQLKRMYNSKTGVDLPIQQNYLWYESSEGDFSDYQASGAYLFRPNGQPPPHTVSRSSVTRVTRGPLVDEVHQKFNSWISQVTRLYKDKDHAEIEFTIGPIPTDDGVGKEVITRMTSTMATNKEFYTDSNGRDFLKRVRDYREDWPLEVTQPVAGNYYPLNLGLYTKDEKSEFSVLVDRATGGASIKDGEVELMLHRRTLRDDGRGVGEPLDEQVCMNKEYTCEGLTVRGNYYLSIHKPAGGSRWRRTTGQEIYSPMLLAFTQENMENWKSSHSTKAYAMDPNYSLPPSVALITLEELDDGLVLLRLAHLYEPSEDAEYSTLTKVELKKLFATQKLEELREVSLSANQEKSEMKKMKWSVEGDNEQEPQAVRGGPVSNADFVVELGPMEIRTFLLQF
As to the kind of experiment: Initial screening assay for enzyme inhibition, α-mannosidase. The assay is classed as biochemical, jack beans. The conditions noted are these: for remaining activity at 10 µM: α-mannosidase, 10 μM inhibitor, 2% MeOH, read-out: % Enzyme activity relative to control. The procedure: as §1
Initial screening assays with the enantiomeric avarols indicated significant activity by these compounds against only two of the twelve enzymes studies. […] This can occur when the two species compete for the same site or nearby sites on the enzyme. The equilibria that describe competitive inhibition are shown below. [drawing 3]
as §2, §4

Take `CC1=CCC[C@H]2[C@](C)(Cc3cc(O)ccc3O)[C@@H](C)CC[C@]12C` [(+)-avarol, (+)-Avarol]: the “% Enzyme activity relative to control” value in assay [1] and in assay [2] (20 μM inhibitor) was 102% in each case. The remaining activity at 40 µM amounted to 100% in assay [3] (40 μM inhibitor) and 82% in assay [4] (40 μM inhibitor). The remaining activity at 10 µM in assay [5] is 90%.

In the case of `CC1=CCC[C@@H]2[C@@](C)(Cc3cc(O)ccc3O)[C@H](C)CC[C@@]12C` [(-)-avarol], the figures for the “% Enzyme activity relative to control” value in assay [1] and in assay [2] (10 μM inhibitor) were 96% and 89%, respectively. Besides, the remaining activity at 20 µM in assay [3] (20 μM inhibitor) is 99%; in assay [4] (20 μM inhibitor), 83%. Also, in assay [5] (versus (+)-avarol), the “activity versus naturally-occurring enantiomer, α-mannosidase (in words)” value is given as “significantly more active than the naturally-occurring enantiomer”. Also, the remaining activity at 10 µM in assay [5] came out at 47%.
